This experiment concerns the target T1, PI3Kα (Homo sapiens, UniProt P42336).
T1 construct: Full length p110 subunits of PI3K α, β and δ, N-terminally labeled with polyHis tag; polyHis (N); made in house; host or cells: Sf9 insect cells (baculovirus)
Put plainly: In vitro PI3K AlphaScreen assay, PI3Kα. It counts as biochemical. The note with it: PI(4,5)P2 substrate, 20 minutes at room temperature, read-out: P13Kalpha IC50 um. In a few lines:
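PI3Kα at 1.6 nM (2× stock) with PI(4,5)P2 10 μM and ATP 20 μM (2× stocks) in Tris pH 7, MgCl2, cholate, NaCl, DTT; 20 min at room temperature. Quenched with biotin-IP4/streptavidin-Donor beads, then GST-PIP3-binding protein/anti-GST Acceptor beads, 1.5 h dark; PIP3 formation read as loss of AlphaScreen signal.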
Background: Alpha assays give light when donor and acceptor beads are brought close together.

T1 sequence (P42336 whole entry): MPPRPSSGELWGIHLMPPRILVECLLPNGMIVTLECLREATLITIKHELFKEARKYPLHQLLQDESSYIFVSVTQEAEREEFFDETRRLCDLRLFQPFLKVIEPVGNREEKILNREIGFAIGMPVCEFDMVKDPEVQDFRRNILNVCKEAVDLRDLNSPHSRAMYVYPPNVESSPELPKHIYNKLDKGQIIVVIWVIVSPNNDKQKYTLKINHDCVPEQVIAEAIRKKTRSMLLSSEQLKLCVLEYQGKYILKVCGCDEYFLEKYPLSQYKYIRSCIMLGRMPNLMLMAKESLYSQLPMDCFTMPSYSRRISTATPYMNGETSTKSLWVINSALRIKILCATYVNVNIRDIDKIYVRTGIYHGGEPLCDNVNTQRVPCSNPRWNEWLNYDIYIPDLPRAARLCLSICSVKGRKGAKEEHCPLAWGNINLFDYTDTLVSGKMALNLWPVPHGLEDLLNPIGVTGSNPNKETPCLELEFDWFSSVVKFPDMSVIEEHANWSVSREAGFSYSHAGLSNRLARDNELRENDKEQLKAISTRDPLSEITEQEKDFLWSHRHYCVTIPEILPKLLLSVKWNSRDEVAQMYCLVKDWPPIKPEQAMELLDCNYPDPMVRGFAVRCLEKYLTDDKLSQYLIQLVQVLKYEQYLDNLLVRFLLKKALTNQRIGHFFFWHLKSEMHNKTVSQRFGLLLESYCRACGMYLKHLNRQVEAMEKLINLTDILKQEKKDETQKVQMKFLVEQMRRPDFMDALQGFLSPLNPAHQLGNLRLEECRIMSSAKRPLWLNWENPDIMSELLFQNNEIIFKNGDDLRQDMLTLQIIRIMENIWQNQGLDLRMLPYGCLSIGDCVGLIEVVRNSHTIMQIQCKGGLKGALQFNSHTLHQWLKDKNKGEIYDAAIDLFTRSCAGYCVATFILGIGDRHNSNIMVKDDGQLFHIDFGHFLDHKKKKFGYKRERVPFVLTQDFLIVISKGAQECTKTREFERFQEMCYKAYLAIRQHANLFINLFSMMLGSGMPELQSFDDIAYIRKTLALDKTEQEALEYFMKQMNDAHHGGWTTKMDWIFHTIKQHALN
T1 sequence (P27986 whole entry partner): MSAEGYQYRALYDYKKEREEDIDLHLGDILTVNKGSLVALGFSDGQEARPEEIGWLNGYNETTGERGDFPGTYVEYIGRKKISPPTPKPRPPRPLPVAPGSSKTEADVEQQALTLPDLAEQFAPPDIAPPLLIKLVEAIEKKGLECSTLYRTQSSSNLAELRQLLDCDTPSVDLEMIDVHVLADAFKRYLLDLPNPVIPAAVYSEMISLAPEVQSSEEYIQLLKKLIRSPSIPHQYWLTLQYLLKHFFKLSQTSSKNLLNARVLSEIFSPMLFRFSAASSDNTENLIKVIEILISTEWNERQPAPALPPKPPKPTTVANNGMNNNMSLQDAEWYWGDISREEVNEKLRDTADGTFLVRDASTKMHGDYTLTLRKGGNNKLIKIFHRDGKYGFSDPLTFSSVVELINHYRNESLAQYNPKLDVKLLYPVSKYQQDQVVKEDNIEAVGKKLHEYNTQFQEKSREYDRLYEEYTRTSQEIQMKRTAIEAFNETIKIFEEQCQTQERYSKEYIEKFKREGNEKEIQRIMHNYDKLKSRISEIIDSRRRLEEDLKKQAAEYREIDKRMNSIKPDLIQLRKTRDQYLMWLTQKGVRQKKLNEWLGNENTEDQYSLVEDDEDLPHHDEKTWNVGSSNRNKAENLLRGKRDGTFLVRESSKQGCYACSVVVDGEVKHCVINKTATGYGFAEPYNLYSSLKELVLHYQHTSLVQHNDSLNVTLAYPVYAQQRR

A word on the IC50: it is the concentration needed to halve the response being measured. As for `Cc1nc(Nc2ccc(N3CCOC(C)C3)nn2)cc(-c2c(Nc3cc[nH]n3)nc3cccnn23)n1` (stereo not shown) [Cpd 140, 3-(2-methyl-6-((6-(2-methyl-4-morpholinyl)-3-pyridazinyl)amino)-4-pyrimidinyl)-N-1H-pyrazol-3-ylimidazo[1,2-b]pyridazin-2-amine], the IC50 was found to be 60 nM.

(Values after patent US20120190666A1, “Heteroaryl Compounds as PIKK Inhibitors” (Amgen Inc., priority 2009, published 2012).)
